Data on one sequence can be found in US10239933B2, “Compositions and methods for modulating thrombin generation” (The Children's Hospital of Philadelphia, priority 2011, dated 2019).

Entries after “also recorded” stand apart in the source; their conditions may differ. Ends that are not written are not given here.

One test has as its system normal human plasma. Briefly: Clot time of normal human plasma. The format is biochemical. Conditions: increasing amounts of FVBR.
The target of another test is T1, FXa/FVa (Homo sapiens, UniProt P12259).
T1 construct: thrombin rapidly cleaves Factor V at Arg709 to produce heavy chain (HC); rapidly cleaves at Arg1018 and Arg1545 to produce light chain (LC); made in house
T1 sequence (P12259 29-737 limits assumed): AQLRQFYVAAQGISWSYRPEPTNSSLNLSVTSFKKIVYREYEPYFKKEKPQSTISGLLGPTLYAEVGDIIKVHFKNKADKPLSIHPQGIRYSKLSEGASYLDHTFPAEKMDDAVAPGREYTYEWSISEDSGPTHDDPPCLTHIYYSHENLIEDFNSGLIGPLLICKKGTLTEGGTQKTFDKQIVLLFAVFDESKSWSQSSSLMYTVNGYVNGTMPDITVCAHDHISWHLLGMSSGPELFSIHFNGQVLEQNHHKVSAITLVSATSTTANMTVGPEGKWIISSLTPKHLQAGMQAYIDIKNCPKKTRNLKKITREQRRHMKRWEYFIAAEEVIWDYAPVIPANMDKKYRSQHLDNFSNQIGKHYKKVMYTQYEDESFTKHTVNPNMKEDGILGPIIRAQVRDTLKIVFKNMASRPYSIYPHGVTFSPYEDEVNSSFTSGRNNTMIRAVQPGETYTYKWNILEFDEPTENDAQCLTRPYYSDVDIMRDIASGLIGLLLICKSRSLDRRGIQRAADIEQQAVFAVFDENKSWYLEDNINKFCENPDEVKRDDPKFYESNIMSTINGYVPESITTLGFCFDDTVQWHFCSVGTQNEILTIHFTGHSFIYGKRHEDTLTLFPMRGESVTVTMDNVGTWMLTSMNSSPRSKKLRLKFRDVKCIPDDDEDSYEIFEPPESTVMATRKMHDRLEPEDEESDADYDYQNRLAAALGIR
T1 sequence (P12259 1574-2224 limits assumed): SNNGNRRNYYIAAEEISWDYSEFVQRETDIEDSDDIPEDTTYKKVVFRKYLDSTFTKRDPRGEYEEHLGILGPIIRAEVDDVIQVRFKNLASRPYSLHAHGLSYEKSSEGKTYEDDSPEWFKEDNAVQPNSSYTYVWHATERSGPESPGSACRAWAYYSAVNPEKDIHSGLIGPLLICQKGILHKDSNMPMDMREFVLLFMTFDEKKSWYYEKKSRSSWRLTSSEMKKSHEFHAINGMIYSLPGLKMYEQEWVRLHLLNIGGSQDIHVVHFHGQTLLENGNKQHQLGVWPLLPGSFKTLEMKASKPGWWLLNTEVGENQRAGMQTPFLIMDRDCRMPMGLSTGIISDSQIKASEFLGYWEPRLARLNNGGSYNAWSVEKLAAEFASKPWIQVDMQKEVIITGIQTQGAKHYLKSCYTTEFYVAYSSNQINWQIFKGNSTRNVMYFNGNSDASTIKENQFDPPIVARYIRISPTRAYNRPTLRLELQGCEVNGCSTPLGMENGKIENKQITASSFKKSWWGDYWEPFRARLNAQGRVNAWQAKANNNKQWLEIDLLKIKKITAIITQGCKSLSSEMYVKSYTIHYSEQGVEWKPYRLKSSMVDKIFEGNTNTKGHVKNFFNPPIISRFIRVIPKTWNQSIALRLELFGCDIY
The experiment in a line: Binding of fluorescently labeled FXa to rFVa on liposomes (anisotropy). Conditions: on PCPS liposomes.

Test [1] concerns the target T2, FXa/FV-DT (Homo sapiens, UniProt P12259, DEL839-1519).
T2 construct: amino acids 1-28 are a signal peptide that is cleaved and numbering begins at residue 29; made in house
The experiment in a line: Prothrombin activation assay, prothrombinase containing FV-810 (FV-DT). The format is biochemical. The following applies: peptide titrated, 1.4 μM prothrombin, 50 μM PCPS, 25° C. On the procedure:
Steady-state initial velocities of prothrombin cleavage were determined discontinuously at 25° C. by measuring the initial rate of thrombin formation. Reaction mixtures contained liposomes (75:25, PC:PS), prothrombin, the indicated Factor V variants, and the Factor V peptides FVBR or s46. The reactions were initiated by adding Factor Xa, and thrombin generation was determined at multiple time points by monitoring the cleavage of the chromogenic thrombin substrate S-2238.
Steady-state initial velocities of prothrombin cleavage were determined discontinuously at 25° C. as described (Camire, R. M. (2002) J. Biol. Chem., 277:37863-37870). Reaction mixtures containing PCPS (50 μM), DAPA (3 μM), prothrombin (1.4 μM), and either rFVa or the indicated FV-810 derivatives were incubated with B-domain peptides (0-10 μM) in assay buffer. […] Prothrombin activation was determined using the chromogenic thrombin substrate 52238 as described (Camire, R. M. (2002) J. Biol. Chem., 277:37863-37870).

Test [2] addresses T2, FXa/FV-DT. The experiment in a line: Binding of fluorescently labeled FXa to FV-DT on liposomes (anisotropy). The following applies: on PCPS liposomes.
The target of a further test is T3, rFVa (Homo sapiens, UniProt P12259).
T3 construct: thrombin rapidly cleaves Factor V at Arg709 to produce heavy chain (HC); rapidly cleaves at Arg1018 and Arg1545 to produce light chain (LC); made in house
T3 sequence (P12259 29-737 limits assumed): T1 sequence (P12259 29-737 limits assumed)
T3 sequence (P12259 1574-2224 limits assumed): T1 sequence (P12259 1574-2224 limits assumed)
Briefly: Clotting assay, FV-deficient plasma supplemented with rFVa. The format is biochemical. Conditions: FIG. 8B: 0.25 nM rFVa, peptides at 5 μM, listed as BR peptide. As to the method:
(§1) Residual clotting activity of Factor V variants was determined by prothrombin time-based clotting assays. Factor V variants were incubated with either the FVBR or s46 peptide, after which the mixtures were mixed with Factor V deficient plasma and clotting times were measured. Where indicated, the Factor V variants were activated by pre-incubation with thrombin prior to addition of the peptides.
(§2) FV derivatives (500 nM) were prepared in assay buffer. Where noted, FV derivatives were pretreated with 10 nM thrombin for 15 minutes at 37° C., followed by the addition of 15 nM hirudin. Samples were diluted to 0.25 nM in assay buffer with 0.1% BSA, and the specific clotting activity was measured in FV-deficient plasma (George King Bio-Medical, Overland Park, Kans.) with TriniCLOT PT Excel (Tcoag, Wicklow, Ireland) as described (Camire et al. (1998) Biochemistry 37:11896-11906). The data are presented as the means±S.D.

The target of the next test is T4, FV-810^R1545Q (Homo sapiens, UniProt P12259, DEL839-1519/R1573Q).
T4 construct: amino acids 1-28 are a signal peptide that is cleaved and numbering begins at residue 29; made in house
T4 sequence (P12259 with tags, fused parts or gaps DEL839-1519/R1573Q): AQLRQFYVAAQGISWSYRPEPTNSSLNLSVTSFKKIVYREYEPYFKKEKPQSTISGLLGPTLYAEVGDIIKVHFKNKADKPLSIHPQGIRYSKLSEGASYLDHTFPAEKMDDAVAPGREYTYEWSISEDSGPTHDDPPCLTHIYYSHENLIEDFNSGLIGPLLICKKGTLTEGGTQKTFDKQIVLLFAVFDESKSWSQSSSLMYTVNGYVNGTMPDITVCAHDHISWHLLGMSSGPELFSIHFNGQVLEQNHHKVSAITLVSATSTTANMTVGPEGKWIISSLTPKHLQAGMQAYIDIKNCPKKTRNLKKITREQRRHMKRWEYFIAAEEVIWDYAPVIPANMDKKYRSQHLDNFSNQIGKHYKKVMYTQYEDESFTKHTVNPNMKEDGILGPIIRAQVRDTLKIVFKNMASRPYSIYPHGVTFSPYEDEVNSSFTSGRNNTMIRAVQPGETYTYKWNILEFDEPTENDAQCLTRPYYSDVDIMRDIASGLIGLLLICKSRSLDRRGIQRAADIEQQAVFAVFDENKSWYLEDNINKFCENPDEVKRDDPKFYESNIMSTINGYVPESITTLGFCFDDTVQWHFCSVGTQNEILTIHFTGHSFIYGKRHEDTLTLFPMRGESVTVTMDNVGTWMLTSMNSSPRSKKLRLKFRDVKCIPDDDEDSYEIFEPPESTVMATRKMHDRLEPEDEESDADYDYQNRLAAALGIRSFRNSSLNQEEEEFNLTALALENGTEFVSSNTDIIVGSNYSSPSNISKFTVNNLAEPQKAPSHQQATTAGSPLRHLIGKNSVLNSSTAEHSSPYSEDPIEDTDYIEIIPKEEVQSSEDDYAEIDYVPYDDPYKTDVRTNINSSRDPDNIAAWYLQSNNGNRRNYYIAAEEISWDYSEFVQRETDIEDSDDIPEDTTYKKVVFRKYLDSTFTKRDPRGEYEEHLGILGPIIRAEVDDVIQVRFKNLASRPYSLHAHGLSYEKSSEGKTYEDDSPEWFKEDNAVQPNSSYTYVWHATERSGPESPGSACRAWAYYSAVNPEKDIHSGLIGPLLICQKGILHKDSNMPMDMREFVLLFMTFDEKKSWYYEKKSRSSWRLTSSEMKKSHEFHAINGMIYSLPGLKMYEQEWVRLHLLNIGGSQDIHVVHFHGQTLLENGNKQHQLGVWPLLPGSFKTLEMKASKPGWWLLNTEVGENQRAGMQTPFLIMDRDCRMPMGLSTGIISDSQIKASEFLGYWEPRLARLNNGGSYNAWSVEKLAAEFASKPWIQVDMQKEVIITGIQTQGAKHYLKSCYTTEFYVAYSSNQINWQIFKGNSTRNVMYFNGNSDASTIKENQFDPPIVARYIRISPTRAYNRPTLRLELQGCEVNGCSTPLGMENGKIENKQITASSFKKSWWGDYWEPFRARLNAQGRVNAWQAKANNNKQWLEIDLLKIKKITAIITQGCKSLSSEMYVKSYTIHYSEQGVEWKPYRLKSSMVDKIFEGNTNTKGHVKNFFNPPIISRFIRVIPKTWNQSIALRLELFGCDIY
The experiment in a line: Clotting assay with FV-810^R1545Q. The format is biochemical. As to the method:
as §1, §2

The target of the next test is T5, FV-810 (Homo sapiens, UniProt P12259, DEL839-1519).
T5 construct: amino acids 1-28 are a signal peptide that is cleaved and numbering begins at residue 29; made in house
T5 sequence (P12259 with tags, fused parts or gaps DEL839-1519): as the sequence (P12259 with tags, fused parts or gaps DEL839-1519/R1573Q) above, with Q864R counted along it
Briefly: Clotting assay, FV-deficient plasma supplemented with FV-810 (FV-DT). The format is biochemical. The following applies: for inhibition of clotting activity of FV-810 (FV-DT): FV-deficient plasma, FIG. 8A: 0.25 nM FV-810, peptides at 5 μM. On the procedure:
as §1, §2

T2 sequence (P12259 with tags, fused parts or gaps DEL839-1519): as the sequence (P12259 with tags, fused parts or gaps DEL839-1519/R1573Q) above, with Q864R counted along it

In the case of “SRAWGESTPLANKPGKQSGHPKFPRVRHKSLQVRQDGGKSRLKKSQFLIKTRKKKKEK [FVBR]”, the “clot time of normal plasma” value in the test with normal human plasma is “prolongs the clot time”. Besides, the “disruption of FXa binding to FVa” value on FXa/FVa is “not FVa”. The “inhibition of prothrombin activation with FV-810 (FV-DT)” value is listed as “inhibiting; also recorded: inhibition” against FXa/FV-DT [1] and “effectively inhibited” against FXa/FV-DT [1] (listed as BR peptide). Moreover, the “disruption of FXa binding to FV-DT” value at FXa/FV-DT [2] is “impaired”; at FXa/FV-DT [2] (listed as FV basic region peptide) it was “disrupts binding”. Further, the “inhibition of clotting activity of rFVa/FVa” value at rFVa is listed as “no inhibitory effect”. Also, the “inhibition of FV-810^R1545Q” value was “still inhibited” at FV-810^R1545Q (following incubation with thrombin) and “potently inhibited” against FV-810^R1545Q (prior to thrombin cleavage). The “inhibition of clotting activity of FV-810 (FV-DT)” value was “inhibited” against FV-810 and “similarly inhibited” at FV-810 (listed as BR peptide). Further, on FV-810 (prior to thrombin cleavage), the “inhibition of FV-810” value is on record as “potently inhibited”.
